pIC50: −log10 of the molar value. Structures can show the parent of a compound that is named as a salt.
Legend:
[1] = molecular target: T1, Recombinant human IKKβ (residues 1-737) (Homo sapiens, UniProt O14920); assay: IKK2 assay (TR-FRET); format: biochemical; conditions: ATP 1 μM final, read-out: pIC50 against IKK2 (converted)
T1 construct: Recombinant human IKKβ (residues 1-737); GST (C); made in house
T1 sequence (O14920 1-737): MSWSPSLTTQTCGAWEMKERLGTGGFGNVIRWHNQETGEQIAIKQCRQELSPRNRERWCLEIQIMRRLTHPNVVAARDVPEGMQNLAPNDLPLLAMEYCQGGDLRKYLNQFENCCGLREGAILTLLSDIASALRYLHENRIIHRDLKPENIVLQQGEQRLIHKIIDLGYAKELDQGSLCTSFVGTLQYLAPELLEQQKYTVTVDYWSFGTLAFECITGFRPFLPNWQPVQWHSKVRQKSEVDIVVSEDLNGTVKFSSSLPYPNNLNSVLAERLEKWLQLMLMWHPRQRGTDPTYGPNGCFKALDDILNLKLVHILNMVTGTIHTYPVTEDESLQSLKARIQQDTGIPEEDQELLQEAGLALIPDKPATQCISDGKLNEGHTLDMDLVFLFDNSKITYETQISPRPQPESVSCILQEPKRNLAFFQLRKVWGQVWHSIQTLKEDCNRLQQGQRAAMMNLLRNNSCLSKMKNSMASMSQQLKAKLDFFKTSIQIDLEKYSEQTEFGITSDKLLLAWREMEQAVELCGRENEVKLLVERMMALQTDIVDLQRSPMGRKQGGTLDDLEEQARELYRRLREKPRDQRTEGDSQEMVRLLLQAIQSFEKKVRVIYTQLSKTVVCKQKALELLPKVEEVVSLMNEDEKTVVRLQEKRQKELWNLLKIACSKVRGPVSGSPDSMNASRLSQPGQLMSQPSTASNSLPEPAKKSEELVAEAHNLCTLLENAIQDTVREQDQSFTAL
Procedure, shortened: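 TR-FRET readout (665 nm over 620 nm Eu reference) of GST-IB Ser32/36 phosphorylation after 60 min detection. Reaction: 1 μM ATP, 25 nM substrate, 0.5-5 nM GST-fused IKKβ 1-737 from baculovirus, pH 7.4 HEPES buffer, 1.7% DMSO, 15 min room temperature, EDTA-terminated.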

[2] = tested on: human monocyte stimulated cytokine production (TNF-α); assay: Monocyte assay (LPS-stimulated TNF-α production); format: cell-based; conditions: for pIC50: 24 h, 200 ng/mL LPS, TNF-α by ELISA; for inhibition at 0.3 µM: read-out: inhibition at 300 nM in the monocyte assay
Procedure, shortened: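 TNF-α release was measured by ELISA after 24 hrs at 37 C. Cells were stimulated with 200 ng/mL E. coli LPS, with compound added 30 minutes beforehand (0.1% DMSO vehicle). Cells were Ficoll/MACS-isolated CD14+ human monocytes adhered at 1×10^6 cells/mL, and viability was checked by trypan blue.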

Compound | IC50 [1] [µM] | pIC50 [2] | inhibition at 0.3 µM [2] [%]
CCCNc1cc(-c2cc(C(N)=O)c3[nH]cc(C4CCN(S(=O)(=O)CC)CC4)c3c2)ccn1 [Example 207, 3-[1-(ethylsulfonyl)-4-piperidinyl]-5-[2-(propylamino)-4-pyridinyl]-1H-indole-7-carboxamide trifluoroacetate] | ≤ 10 | < 6.00 | 
CCS(=O)(=O)N1CCC(c2c[nH]c3c(C(N)=O)cc(-c4cccc(CN(C)CC(O)c5ccccc5)c4)cc23)CC1 (stereo not shown) [Example 12, 3-[1-(ethylsulfonyl)-4-piperidinyl]-5-(3-{[(2-hydroxy-2-phenylethyl)-(methyl)amino]methyl}phenyl)-1H-indole-7-carboxamide] | ≤ 10 | ≥ 5.82 | 
CCS(=O)(=O)N1CCC(c2c[nH]c3c(C(N)=O)cc(-c4csc(CN(C)Cc5ccco5)c4)cc23)CC1 [Example 77, 3-[1-(ethylsulfonyl)-4-piperidinyl]-5-(5-{[(2-furanylmethyl)(methyl)amino]methyl}-3-thienyl)-1H-indole-7-carboxamide trifluoroacetate] | ≤ 10 | ≥ 5.82 | 
CCS(=O)(=O)N1CCC(c2c[nH]c3c(C(N)=O)cc(-c4cccc(CNS(=O)(=O)c5ccc(Br)cc5)c4)cc23)CC1 [Example 371, 5-[3-({[(4-bromophenyl)sulfonyl]amino}methyl)phenyl]-3-[1-(ethylsulfonyl)-4-piperidinyl]-1H-indole-7-carboxamide] | ≤ 10 | ≥ 5.82 | 
CCS(=O)(=O)N1CCC(c2c[nH]c3c(C(N)=O)cc(-c4cccc(CNS(=O)(=O)c5ccccc5)c4)cc23)CC1 [Example 379, 3-[1-(ethylsulfonyl)-4-piperidinyl]-5-(3-{[(phenylsulfonyl)amino]methyl}phenyl)-1H-indole-7-carboxamide] | ≤ 10 | < 6.00 | 
CCS(=O)(=O)N1CCC(c2c[nH]c3c(C(N)=O)cc(-c4ccc(C5CNCCN5)s4)cc23)CC1 (stereo not shown) [Example 298, 3-[1-(ethylsulfonyl)-4-piperidinyl]-5-[5-(2-piperazinyl)-2-thienyl]-1H-indole-7-carboxamide trifluoroacetate] | ≤ 10 | ≥ 5.82 | 
CCS(=O)(=O)N1CCC(c2c[nH]c3c(C(N)=O)cc(-c4ccc(CNCCCOC)s4)cc23)CC1 [Example 194, 3-[1-(ethylsulfonyl)-4-piperidinyl]-5-[5-({[3-(methyloxy)propyl]amino}methyl)-2-thienyl]-1H-indole-7-carboxamide] | ≤ 10 | < 6.00 | 
CCS(=O)(=O)N1CCC(c2c[nH]c3c(C(N)=O)cc(-c4csc(CN(C)CC5CCN(C(C)C)C5)c4)cc23)CC1 (stereo not shown) [Example 79, 3-[1-(ethylsulfonyl)-4-piperidinyl]-5-{5-[(methyl{[1-(1-methylethyl)-3-pyrrolidinyl]methyl}amino)methyl]-3-thienyl}-1H-indole-7-carboxamide trifluoroacetate] | ≤ 10 |  | 0 to 60
CCS(=O)(=O)N1CCC(c2c[nH]c3c(C(N)=O)cc(-c4cccc(CNC(=O)c5ccco5)c4)cc23)CC1 [Example 361, 3-[1-(ethylsulfonyl)-4-piperidinyl]-5-(3-{[(2-furanylcarbonyl)amino]methyl}phenyl)-1H-indole-7-carboxamide trifluoroacetate] | ≤ 10 | ≥ 5.82 | 
CCS(=O)(=O)N1CCC(c2c[nH]c3c(C(N)=O)cc(-c4csc(CN(C)Cc5ccsc5)c4)cc23)CC1 [Example 82, 3-[1-(ethylsulfonyl)-4-piperidinyl]-5-(5-{[methyl(3-thienylmethyl)amino]methyl}-1′-3-thienyl)-1H-indole-7-carboxamide trifluoroacetate] | ≤ 10 | ≥ 5.82 | 
CCS(=O)(=O)N1CCC(c2c[nH]c3c(C(N)=O)cc(-c4cccc(CN[C@H]5CC[C@H](O)CC5)c4)cc23)CC1 [Example 20, 3-[1-(ethylsulfonyl)-4-piperidinyl]-5-(3-{[(trans-4-hydroxycyclohexyl)amino]methyl}phenyl)-1H-indole-7-carboxamide] | ≤ 10 | ≥ 5.82 | 
CCS(=O)(=O)N1CCC(c2c[nH]c3c(C(N)=O)cc(-c4csc(CN(C)CCSCCO)c4)cc23)CC1 [Example 431, 3-[1-(ethylsulfonyl)-4-piperidinyl]-5-(5-{[{2-[(2-hydroxyethyl)thio]ethyl}(methyl)amino]methyl}-3-thienyl)-1H-indole-7-carboxamide] | ≤ 10 |  | 0 to 60
CCS(=O)(=O)N1CCC(c2c[nH]c3c(C(N)=O)cc(-c4cccc(CN(C)CCN(C)C)c4)cc23)CC1 [Example 5, 5-(3-{[[2-(dimethylamino)ethyl](methyl)amino]methyl}phenyl)-3-[1-(ethylsulfonyl)-4-piperidinyl]-1H-indole-7-carboxamide] | ≤ 10 | ≥ 5.82 | 
CCN(C)Cc1nc(-c2cc(C(N)=O)c3[nH]cc(C4CCN(S(=O)(=O)CC)CC4)c3c2)cs1 [Example 356, 5-(2-{[ethyl(methyl)amino]methyl}-1,3-thiazol-4-yl)-3-[1-(ethylsulfonyl)-4-piperidinyl]-1H-indole-7-carboxamide trifluoroacetate] | ≤ 10 | ≥ 5.82 | 

Continued, in another order:

IC50 [1] [µM] | pIC50 [2] | Compound | inhibition at 0.3 µM [2] [%]
≤ 10 |  | CCS(=O)(=O)N1CCC(c2c[nH]c3c(C(N)=O)cc(-c4cncc(CNCC(C)C)c4)cc23)CC1 [Example 180, 3-[1-(ethylsulfonyl)-4-piperidinyl]-5-(5-{[(2-methylpropyl)amino]methyl}-3-pyridinyl)-1H-indole-7-carboxamide] | 0 to 60
≤ 10 | ≥ 5.82 | CC(C)S(=O)(=O)N1CCC(c2c[nH]c3c(C(N)=O)cc(-c4csc(CN(C)C)c4)cc23)CC1 [Example 220, 5-{5-[(dimethylamino)methyl]-3-thienyl}-3-{1-[(1-methylethyl)sulfonyl]-4-piperidinyl}-1H-indole-7-carboxamide trifluoroacetate] | 
≤ 10 |  | CCS(=O)(=O)N1CCC(c2c[nH]c3c(C(N)=O)cc(-c4csc(CN(C)Cc5cccs5)c4)cc23)CC1 [Example 80, 3-[1-(ethylsulfonyl)-4-piperidinyl]-5-(5-{[methyl(2-thienylmethyl)amino]methyl}-3-thienyl)-1H-indole-7-carboxamide trifluoroacetate] | 0 to 60
≤ 10 |  | CCS(=O)(=O)N1CCC(c2c[nH]c3c(C(N)=O)cc(-c4cncc(CNCCCOC)c4)cc23)CC1 [Example 175, 3-[1-(ethylsulfonyl)-4-piperidinyl]-5-[5-({[3-(methyloxy)propyl]amino}methyl)-3-pyridinyl]-1H-indole-7-carboxamide] | 0 to 60
≤ 10 | ≥ 5.82 | CCS(=O)(=O)N1CCC(c2c[nH]c3c(C(N)=O)cc(-c4csc(CN(C)[C@@H](C)CO)c4)cc23)CC1 [Example 408, 3-[1-(ethylsulfonyl)-4-piperidinyl]-5-(5-{[[(1S)-2-hydroxy-1-methylethyl](methyl)amino]methyl}-3-thienyl)-1H-indole-7-carboxamide trifluoroacetate] | 
≤ 10 | < 6.00 | CCOCCCNCc1ccc(-c2cc(C(N)=O)c3[nH]cc(C4CCN(S(=O)(=O)CC)CC4)c3c2)s1 [Example 193, 5-[5-({[3-(ethyloxy)propyl]amino}methyl)-2-thienyl]-3-[1-(ethylsulfonyl)-4-piperidinyl]-1H-indole-7-carboxamide] | 
≤ 10 | ≥ 5.82 | CCS(=O)(=O)N1CCC(c2c[nH]c3c(C(N)=O)cc(-c4csc(CCNCC(C)C)c4)cc23)CC1 [Example 222, 3-[1-(ethylsulfonyl)-4-piperidinyl]-5-(5-{2-[(2-methylpropyl)amino]ethyl}-3-thienyl)-1H-indole-7-carboxamide trifluoroacetate] | 
≤ 10 |  | CCS(=O)(=O)N1CCC(c2c[nH]c3c(C(N)=O)cc(-c4cncc(CN5CCCC5C)c4)cc23)CC1 (stereo not shown) [Example 179, 3-[1-(ethylsulfonyl)-4-piperidinyl]-5-{5-[(2-methyl-1-pyrrolidinyl)methyl]-3-pyridinyl}-1H-indole-7-carboxamide] | 0 to 60
≤ 10 | ≥ 5.82 | CCS(=O)(=O)N1CCC(c2c[nH]c3c(C(N)=O)cc(-c4cc(CNCC(C)C)ccc4F)cc23)CC1 [Example 335, 3-[1-(ethylsulfonyl)-4-piperidinyl]-5-(2-fluoro-5-{[(2-methylpropyl)amino]methyl}phenyl)-1H-indole-7-carboxamide trifluoroacetate] | 

Reference: patent publication US8063071B2 (GlaxoSmithKline, LLC, priority 2007, dated 2011)
